# According to article PMC4404319 (ACS Chemical Neuroscience, 2015):
# “Also recorded” adds a separate entry of the source.
# Legend:
# 166 GPCRs = experiment: Functional GPCR agonist and antagonist screen, whole panel; type: cell-based; settings: agonist 12 500 nM, antagonist 10 000 nM
# Chemical stability = type: physicochemical; settings: pH 1–13, 24 h, 37 °C
# C57BL/6 mice = experiment: Modified SHIRPA adverse pharmacology screen; type: in vivo; settings: 50 and 150 mg/kg, 24 h observation
# in vivo = settings: male, Sprague-Dawley, rat, 5 mg/kg
# in vitro = settings: rat, liver microsomes, pH 7.4
# P-gp = experiment: in vitro; settings: human, Caco-2
# BCRP = experiment: in vitro; settings: dog
# [1] = system: Salmonella typhimurium TA98 and TA100; experiment: Ames bacterial reverse mutation assay; settings: ± metabolic activation, up to 5 μg/plate
# MAO-A = target: T1, MAO-A (Homo sapiens, UniProt P21397); experiment: Monoamine oxidase inhibition; settings: 0.01–25 μM
# T1 sequence (P21397 1-527): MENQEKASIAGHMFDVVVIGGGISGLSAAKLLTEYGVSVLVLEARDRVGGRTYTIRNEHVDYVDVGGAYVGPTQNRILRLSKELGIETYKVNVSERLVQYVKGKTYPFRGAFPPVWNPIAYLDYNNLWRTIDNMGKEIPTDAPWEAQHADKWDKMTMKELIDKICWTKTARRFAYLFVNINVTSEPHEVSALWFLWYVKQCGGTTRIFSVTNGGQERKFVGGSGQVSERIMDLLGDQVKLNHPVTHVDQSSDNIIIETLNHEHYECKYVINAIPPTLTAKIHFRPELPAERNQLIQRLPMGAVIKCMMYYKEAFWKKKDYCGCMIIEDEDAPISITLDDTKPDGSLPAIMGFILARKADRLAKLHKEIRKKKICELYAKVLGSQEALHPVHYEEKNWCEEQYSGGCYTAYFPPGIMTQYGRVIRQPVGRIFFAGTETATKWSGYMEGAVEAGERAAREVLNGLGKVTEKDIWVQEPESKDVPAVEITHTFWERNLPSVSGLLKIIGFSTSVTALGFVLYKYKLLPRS
# MAO-B = target: T2, MAO-B (Homo sapiens, UniProt P27338); experiment: Monoamine oxidase inhibition; settings: 0.01–25 μM
# T2 sequence (P27338 1-520): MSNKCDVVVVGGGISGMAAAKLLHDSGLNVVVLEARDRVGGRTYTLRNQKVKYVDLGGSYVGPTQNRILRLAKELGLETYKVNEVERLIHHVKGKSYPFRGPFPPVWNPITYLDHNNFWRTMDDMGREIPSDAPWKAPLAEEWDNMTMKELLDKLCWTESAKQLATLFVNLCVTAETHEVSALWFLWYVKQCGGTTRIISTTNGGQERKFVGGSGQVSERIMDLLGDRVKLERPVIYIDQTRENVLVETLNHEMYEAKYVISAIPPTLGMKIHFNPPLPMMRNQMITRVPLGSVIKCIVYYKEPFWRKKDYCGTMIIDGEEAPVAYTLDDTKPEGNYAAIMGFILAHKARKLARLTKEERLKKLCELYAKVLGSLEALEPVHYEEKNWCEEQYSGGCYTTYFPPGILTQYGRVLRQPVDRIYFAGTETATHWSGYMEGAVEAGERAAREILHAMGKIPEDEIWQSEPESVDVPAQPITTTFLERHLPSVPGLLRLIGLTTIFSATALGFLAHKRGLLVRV
# Caco-2 / P-gp = experiment: Caco-2 two-way permeability / P-gp substrate; settings: Caco-2, second of two values given 'respectively'
# MDCK / BCRP = experiment: BCRP-MDCK two-way permeability / BCRP substrate
# [2] = system: APP/PS1 transgenic (Tg) mouse; experiment: Behavior in APP/PS1 transgenic mice, preventative paradigm
# [3] = 2.5 mg/kg, oral, daily, 8 weeks to 3–4 months of age
smiles,measurement,setting,value
"CN1CCN(c2cc(-c3ccncc3)c(-c3ccc4ccccc4c3)nn2)CC1 [MW150, 6-(4-Methylpiperazin-1-yl)-3-(naphthalen-2-yl)-4-(pyridin-4-yl)pyridazine]",functional GPCR off-target activity,166 GPCRs,no agonist or antagonist activity; also recorded: negative
same,chemical stability,Chemical stability,"chemically stable; also recorded: stable at pH (1–13), 24 h, 37 °C"
same,"adverse pharmacology, clinical observation",C57BL/6 mice,no differences or adverse events were detected
same,half-life,in vivo,> 180 min
same,half-life at 1 μM,in vitro,43 ± 4 min
same,microsomal CLint at 1 μM,in vitro,20 µL/min/mg
same,"Papp A→B at 2 h, 5 μM",P-gp,33.5 ×10⁻⁶ cm/s
same,"Papp B→A at 2 h, 5 μM",P-gp,31.2 ×10⁻⁶ cm/s
same,recovery,P-gp,71%
same,"Papp A→B at 2 h, 5 μM",BCRP,20.7 ×10⁻⁶ cm/s
same,"Papp B→A at 2 h, 5 μM",BCRP,25.1 ×10⁻⁶ cm/s
same,recovery,BCRP,66%
same,AMES test,[1],negative
same,MAO-A inhibition,MAO-A,negative
same,MAO-B inhibition,MAO-B,negative
same,"percent recovery, second value",Caco-2 / P-gp,61%
same,MDCK permeability classification,MDCK / BCRP,high cell permeability; also recorded: highly permeable
same,"percent recovery, second value","MDCK / BCRP; MDCK, second of two values given 'respectively'",67%
same,BCRP substrate status,MDCK / BCRP; effect of 10 μM Ko143 on bidirectional flux,not a substrate; also recorded: not BCRP substrate
same,RAWM (spatial memory),[2]; [3],improved; also recorded: suppression of the deficits
same,contextual fear memory (associative memory),[2]; [3],improved; also recorded: suppression of the deficits
same,dose dependence of behavior end points,[2]; Figure S2,dose dependent
same,performance of WT mice,"[2]; WT littermates, 2.5 mg/kg oral daily",did not affect
same,sensory threshold,[2]; control behavior,No difference
same,visible platform task,[2]; control behavior,did not influence; also recorded: No difference
same,cued fear memory,"[2]; control behavior, hippocampus-independent",no effect; also recorded: No difference
same,open field tests,"[2]; control behavior, locomotor activity and anxiety",did not influence; also recorded: No difference
